Data as given in the NIST ThermoML archive (doi:10.1021/acs.jced.7b00106).
Numbers after ± are expanded uncertainties.

Settings: Hot wire method

FC(F)(F)/C=C/Cl [(E)-1-chloro-3,3,3-trifluoroprop-1-ene]
Settings	thermal conductivity [W/m/K]
402.75 K, 1852 kPa, Liquid	0.05457 ± 0.0018
402.76 K, 13350 kPa, Liquid	0.06467 ± 0.00073
402.76 K, 13371 kPa, Liquid	0.06472 ± 0.00096
402.78 K, 848 kPa, Fluid (supercritical or subcritical phases)	0.01932 ± 0.0027
402.79 K, 846 kPa, Fluid (supercritical or subcritical phases)	0.01931 ± 0.0017
402.79 K, 21633 kPa, Liquid	0.06986 ± 0.00083
402.8 K, 21636 kPa, Liquid	0.06986 ± 0.00082
402.82 K, 28727 kPa, Liquid	0.07362 ± 0.00085
402.84 K, 5979 kPa, Liquid	0.05886 ± 0.00072
402.84 K, 5987 kPa, Liquid	0.05889 ± 0.00072
402.84 K, 11088 kPa, Liquid	0.0631 ± 0.0011
402.84 K, 28733 kPa, Liquid	0.07365 ± 0.0014
402.85 K, 11093 kPa, Liquid	0.06312 ± 0.001
402.86 K, 18624 kPa, Liquid	0.06805 ± 0.00077
402.87 K, 18643 kPa, Liquid	0.06812 ± 0.00084
402.89 K, 4691 kPa, Liquid	0.05763 ± 0.00076
402.89 K, 4699 kPa, Liquid	0.05767 ± 0.00076
402.9 K, 9108 kPa, Liquid	0.06161 ± 0.0022
402.9 K, 33571 kPa, Liquid	0.07603 ± 0.0014
402.91 K, 674 kPa, Fluid (supercritical or subcritical phases)	0.01931 ± 0.0018
402.91 K, 9096 kPa, Liquid	0.0616 ± 0.0011
402.91 K, 33586 kPa, Liquid	0.07604 ± 0.0011
402.93 K, 3567 kPa, Liquid	0.05645 ± 0.001
402.94 K, 3574 kPa, Liquid	0.05661 ± 0.001
402.96 K, 15767 kPa, Liquid	0.06628 ± 0.001
402.96 K, 24990 kPa, Liquid	0.07167 ± 0.0011
402.96 K, 25002 kPa, Liquid	0.07171 ± 0.0014
402.97 K, 7096 kPa, Liquid	0.05991 ± 0.0011
402.97 K, 15769 kPa, Liquid	0.0663 ± 0.001
402.98 K, 2633 kPa, Liquid	0.05541 ± 0.0024
402.98 K, 7087 kPa, Liquid	0.05989 ± 0.00068
402.99 K, 2643 kPa, Liquid	0.05551 ± 0.0022
403 K, 1856 kPa, Liquid	0.0546 ± 0.0017
403.01 K, 1850 kPa, Liquid	0.05458 ± 0.0017
403.03 K, 21637 kPa, Liquid	0.06984 ± 0.00089
403.04 K, 13347 kPa, Liquid	0.06471 ± 0.00073
403.04 K, 13368 kPa, Liquid	0.06474 ± 0.00085
403.07 K, 21655 kPa, Liquid	0.06986 ± 0.00085
403.09 K, 28719 kPa, Liquid	0.0736 ± 0.0011
403.1 K, 28719 kPa, Liquid	0.07336 ± 0.0012
403.11 K, 5980 kPa, Liquid	0.05886 ± 0.001
403.12 K, 5983 kPa, Liquid	0.05891 ± 0.00084
403.12 K, 11089 kPa, Liquid	0.06307 ± 0.00082
403.12 K, 11091 kPa, Liquid	0.06308 ± 0.00082
403.14 K, 18630 kPa, Liquid	0.06809 ± 0.00083
403.15 K, 18626 kPa, Liquid	0.06808 ± 0.0019
403.17 K, 4697 kPa, Liquid	0.05766 ± 0.00096
403.18 K, 4698 kPa, Liquid	0.05772 ± 0.00098
403.18 K, 9094 kPa, Liquid	0.06153 ± 0.00093
403.19 K, 9095 kPa, Liquid	0.06162 ± 0.00095
403.19 K, 33557 kPa, Liquid	0.076 ± 0.0011
403.2 K, 33576 kPa, Liquid	0.07601 ± 0.001
403.23 K, 3569 kPa, Liquid	0.0565 ± 0.0012
403.24 K, 3565 kPa, Liquid	0.05654 ± 0.0012
403.24 K, 15779 kPa, Liquid	0.06628 ± 0.00082
403.24 K, 25000 kPa, Liquid	0.07167 ± 0.0022
403.25 K, 15789 kPa, Liquid	0.06631 ± 0.00075
403.25 K, 24985 kPa, Liquid	0.07165 ± 0.0016
403.27 K, 2641 kPa, Liquid	0.05557 ± 0.002
403.27 K, 7090 kPa, Liquid	0.05988 ± 0.001
403.27 K, 7094 kPa, Liquid	0.05994 ± 0.00086
403.28 K, 2638 kPa, Liquid	0.05558 ± 0.0014
403.3 K, 1852 kPa, Liquid	0.05468 ± 0.0027
403.31 K, 1856 kPa, Liquid	0.05476 ± 0.0043
403.32 K, 13355 kPa, Liquid	0.06468 ± 0.0021
403.33 K, 13350 kPa, Liquid	0.06467 ± 0.0021
403.33 K, 21631 kPa, Liquid	0.0698 ± 0.0018
403.33 K, 21643 kPa, Liquid	0.06984 ± 0.0016
403.37 K, 28710 kPa, Liquid	0.07356 ± 0.0059
403.37 K, 28735 kPa, Liquid	0.0736 ± 0.0067
403.39 K, 11081 kPa, Liquid	0.06304 ± 0.0013
403.4 K, 5980 kPa, Liquid	0.05891 ± 0.0012
403.4 K, 11095 kPa, Liquid	0.06309 ± 0.0012
